Data from US4987128A, “Novel 10β-alkynyl-steroids” (Roussel Uclaf, priority 1986, dated 1991).

Molecular target: T1, mineralo-corticoid receptor of the rat kidney (Rattus norvegicus, UniProt P22199)
T1 construct: The kidneys were then removed, decapsulated and homogenized at 0° C; from tissue; host or cells: kidney of adrenalectomized male Sprague-Dawley EOPS rats, 105,000 g supernatant (cytosol)
T1 sequence (P22199 1-981): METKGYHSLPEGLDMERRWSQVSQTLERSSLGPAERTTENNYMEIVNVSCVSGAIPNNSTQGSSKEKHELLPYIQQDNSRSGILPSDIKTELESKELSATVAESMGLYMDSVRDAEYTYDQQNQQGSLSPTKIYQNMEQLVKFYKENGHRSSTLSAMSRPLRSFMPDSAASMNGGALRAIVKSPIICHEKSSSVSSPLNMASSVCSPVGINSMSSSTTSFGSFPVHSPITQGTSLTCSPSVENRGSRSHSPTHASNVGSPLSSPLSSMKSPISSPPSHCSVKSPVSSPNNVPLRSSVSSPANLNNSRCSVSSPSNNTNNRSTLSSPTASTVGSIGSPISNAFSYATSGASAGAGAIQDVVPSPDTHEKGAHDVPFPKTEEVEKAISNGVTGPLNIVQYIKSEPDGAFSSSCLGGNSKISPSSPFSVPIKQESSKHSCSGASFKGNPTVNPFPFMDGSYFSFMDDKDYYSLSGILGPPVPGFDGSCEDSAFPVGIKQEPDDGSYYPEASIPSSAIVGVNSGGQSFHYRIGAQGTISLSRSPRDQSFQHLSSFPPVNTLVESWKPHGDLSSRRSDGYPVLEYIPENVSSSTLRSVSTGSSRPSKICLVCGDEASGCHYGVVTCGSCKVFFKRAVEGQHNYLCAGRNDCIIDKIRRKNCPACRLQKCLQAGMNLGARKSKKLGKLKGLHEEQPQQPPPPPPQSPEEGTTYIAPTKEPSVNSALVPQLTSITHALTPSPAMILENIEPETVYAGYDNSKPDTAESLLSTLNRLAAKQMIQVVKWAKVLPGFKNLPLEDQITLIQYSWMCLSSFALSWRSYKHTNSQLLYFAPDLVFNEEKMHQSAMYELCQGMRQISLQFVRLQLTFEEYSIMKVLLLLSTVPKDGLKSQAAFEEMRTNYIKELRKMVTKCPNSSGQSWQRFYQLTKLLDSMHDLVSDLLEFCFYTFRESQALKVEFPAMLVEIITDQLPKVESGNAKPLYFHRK
Test: Anti-aldosterone activity: displacement of tritiated aldosterone from the mineralo-corticoid receptor of the rat kidney (relative liaison affinity)
Assay type: binding
Details: vs cold aldosterone as reference hormone, rat kidney cytosol
Procedure: Study of the anti-aldosterone activity of the mineralo-corticoid receptor of the rat kidney
Male Sprague-Dawley EOPS rats weighing 140 to 160 g, suprarenalectomized 4 to 6 days earlier, were killed and their kidneys were perfused in situ with 50 ml of Tris 10 mM-saccharose 0.25M buffer, HCl pH 7.4. The kidneys were then removed, decapsulated and homogenized at 0° C. with a Potter polytetrafluoroethylene glass (1 g of tissue for 3 ml of buffer). The homogenate was centrifuged for 10 minutes at 800 g at 0° C. To eliminate the fixation of the tritiated aldosterone on the glucocorticoid receptor, 11β,17β-dihydroxy-17α-(1-propynyl)-Δ^1,4,6 -androstatrien-3-one which fixes uniquely on the glucocorticoid receptor was added to the supernatant at a final concentration of 10^-6 M. This supernatant was ultracentrifuged at 105,000 g for 60 minutes at 0° C. and aliquots of the supernatant were incubated at 0° C. with a constant concentration (T) of tritiated aldosterone in the presence of increasing concentrations (0-2500×10^-9 M) of cold aldosterone or of the cold product under study. After an incubation time (t), the concentration of tritiated aldosterone bound (B) was measured by the technique of adsorption on charcoal-dextran.
The calculation of the relative liaison affinity (RLA) was carried out as follows: The two following curves were drawn: the percentage of tritiated hormone bonded B/T as a function of the logarithm of the concentration of the cold reference hormone, and B/T as a function of the logarithm of the concentration of the cold product under test. The straight line of the equation I50 =(B/T max+B/T min)/2 was determine B/T max=percentage of the tritiated hormone bonded for an incubation of this triated hormone at the concentration (T), B/T min=percentage of the tritiated hormone bonded for an incubation of this tritiated hormone at the concentration (T) in the presence of a great excess of cold hormone (2500.10^-9 M). The intersections of the straight line I50 and the curves enabled the concentrations of the cold reference hormone (CH) and of the cold product tested (CX) to be evaluated which inhibited by 50% the bonding of the tritiated hormone on the receptor. The relative liaison affinity (RAL) of the product tested is determined by the equation: [formula] The following results were obtained;

[1] = incubation time at 0° C.: 1 hour
[2] = incubation time at 0° C.: 24 hours

SMILES	relative liaison affinity (RLA) [1]	relative liaison affinity (RLA) [2]
C#C[C@]12CCC(=O)C=C1CC[C@@H]1[C@@H]2CC[C@@]2(C)[C@H]1CC[C@@]21CCC(=O)O1 [Example 1, Gamma-lactone of 10β-ethynyl-17β-hydroxy-3-oxo-19-nor-17α-Δ^4-pregnen 21-carboxylic acid]	125	65
CC#C[C@]12CCC(=O)C=C1CC[C@@H]1[C@@H]2CC[C@@]2(C)[C@H]1CC[C@@]21CCC(=O)O1 [Example 3, γ-lactone of 17β-hydroxy-3-oxo-10β-(1-propynyl)-19-nor-17α-Δ^4-pregnene-21-carboxylic acid]	50	43
